The results in this text go back to US20120308554A1, “VEGF-D/VEGFR2/3-MEDIATED REGULATION OF DENDRITES” (UNIVERSITAT HEIDELBERG, priority 2011, published 2012).

Common to all, as to type: cell-based, mice
Data set [1] relates to VEGFD, VEGF, VEGFC and VEGFR3. The data set is described as follows: qRT-PCR analysis of shRNA knock-down of VEGF family members. To be noted: hippocampal neurons infected with rAAV. As for the experimental part: Total RNA was isolated at DIV10 to DIV13 from hippocampal primary neuron cultures or isolated brain tissues with Rneasy Mini Kit (Qiagen, Hilden, Germany) including an optional Dnase I treatment at room temperature for 15 min according to manufacturer's instructions (Qiagen). 1.2 μg of extracted RNA was reverse transcribed into first strand cDNA using High Capacity cDNA Reverse Transcription kit (Applied Biosystems, Foster City, Calif.). Quantitative reverse transcriptase PCR (qRT-PCR) was done on an ABI7300 thermal cycler using Universal qRT-PCR master mix with TaqMan Gene Expression Assays for the indicated genes (Applied Biosystems). The following TaqMan Gene Expression Assays were used in this study: Gusb (Mm00446953_m1), cFos (Mm00487425_m1), VEGFD (Mm00438965_m1), VEGFC (Mm01202432_m1), VEGF (Mm01281449_m1), VEGFR3 (Mm01292618_m1), beta-actin (Mm00607939_s1), beta-2 microglobulin (Mm00437762_m1), CBP (Mm01342435_m1), p38 MAPK alpha (Mm00442497_m1), p38 MAPK beta (Mm00440955_m1). Expression of target genes was normalized against the expression of Gusb as endogenous control gene. Data were derived from at least 5 independent experiments. For expression of shRNAs, an rAAV vector containing the U6 promoter for shRNA expression and a CaMKII promoter driving mCherry expression was used. Three different sequences were obtained from Open Biosystems ([…] 2 and […] 3), cloned and tested for silencing efficiency. […] As control, a scramble version of this sequence ([…] ID NO: 2) and the vector carrying only the mCherry ([…]) were used. Shp38alpha [NT] ID NO: 3), shp38beta [NT] ID NO: 4), […] ID NO: 5), […] ID NO: 6) and […] ID NO: 7; sequence obtained from Open Biosystems www.openbiosystems.com) were also cloned into the same vector. CBP expression level was knocked down using a pool of four short interfering RNAs (siRNAs) targeting mouse CBP (Accell siRNA SMARTpool; Thermo Scientific Dharmacon). The SMARTpool is a group of four siRNAs that have been screened to reduce a variety of potential off-target effects including the inclusion of miRNA (microRNA)-like seed motifs. Silencing of GAPDH was measured using Accell mouse GAPDH as a positive control, and as a negative control, a non-targeting Accell mouse siRNA pool was used. In addition, a fluorescently labeled non-targeting Accell mouse siRNA was also used to evaluate penetration efficiency in hippocampal neurons via immunocytochemistry. Briefly, 500 nM siRNAs were supplemented in the serum-free culturing medium at DIV8, and mRNA levels were analyzed at DIV13.
In general terms: In qPCR the cycle at which signal appears reflects the starting amount.

In data set [2] the test system is hippocampal neurons. The data set is described as follows: Morphometric analyses (total dendritic length, Sholl analysis, spine density) of cultured hippocampal neurons. To be noted: for total dendritic length and dendritic complexity (Sholl analysis): neurons expressing the construct versus control constructs; for rescue of reduction in dendrite length and complexity caused by CaMBP4 or CaMKIVK75E: recombinant factors 100 ng/ml for 3 days, or VEGFD-HA expression. The procedure: Hippocampal neurons from newborn C57BL/6 mice were cultured as known in the art. Experiments were done after a culturing period of 10 to 14 days in vitro (DIV). DNA transfection was done on DIV8 using Lipofectamine 2000 (Invitrogen, San Diego, Calif.). For the studies on dendrite morphology, neurons were analyzed 4-5 days after transfection.
For 3D Sholl Analysis, total dendritic length and spine morphology were calculated using Object-Image freeware software with a specific set of macros (written by Dr. E. Ruthazer, McGill University, Quebec). Briefly, a z-Stack acquisition was imported, calibrated in Object-Image and manually traced. Total dendritic length was then computed. For Sholl analysis, the shell interval was set at 5 μm. All analyses were performed blind. In all in vitro experiments, for each condition, a minimum of 12 neurons from three independent preparations was analyzed. For the Golgi staining quantifications of 20 neurons for each condition from 4 different injected animals per viral construct were traced and analyzed.
Hippocampal neurons were fixed with 4% paraformaldehyde at room temperature for 20 min. For immunostaining, primary and secondary antibodies were applied in GDB buffer (30 mM phosphate buffer [pH7.4] containing 0.2% gelatin, 0.5% Triton X-100, and 0.9 M NaCl). For the morphometric analyses, fluorescence images were acquired using a confocal laser-scanning microscope TCS SP2 (Leica, Mannheim, Germany) equipped with an inverted fluorescence microscope DM IRE2 (Leica) and Leica confocal scan software. All images were obtained with sequential acquisition setting at a resolution of 1024×1024 pixels. Each image was a z series projection of images taken at 1 μm intervals.

Data set [3] deals with VEGFD. The data set is described as follows: qRT-PCR analysis of VEGFD expression in hippocampal neurons. As for the experimental part: Total RNA was isolated at DIV10 to DIV13 from hippocampal primary neuron cultures or isolated brain tissues with Rneasy Mini Kit (Qiagen, Hilden, Germany) including an optional Dnase I treatment at room temperature for 15 min according to manufacturer's instructions (Qiagen). 1.2 μg of extracted RNA was reverse transcribed into first strand cDNA using High Capacity cDNA Reverse Transcription kit (Applied Biosystems, Foster City, Calif.).
Quantitative reverse transcriptase PCR (qRT-PCR) was done on an ABI7300 thermal cycler using Universal qRT-PCR master mix with TaqMan Gene Expression Assays for the indicated genes (Applied Biosystems). The following TaqMan Gene Expression Assays were used in this study: Gusb (Mm00446953_m1), cFos (Mm00487425_m1), VEGFD (Mm00438965_m1), VEGFC (Mm01202432_m1), VEGF (Mm01281449_m1), VEGFR3 (Mm01292618_m1), beta-actin (Mm00607939_s1), beta-2 microglobulin (Mm00437762_m1), CBP (Mm01342435_m1), p38 MAPK alpha (Mm00442497_m1), p38 MAPK beta (Mm00440955_m1). Expression of target genes was normalized against the expression of Gusb as endogenous control gene. Data were derived from at least 5 independent experiments.

Data set [4] deals with cultured hippocampal neurons. Briefly: Whole-cell patch clamp recordings of cultured hippocampal neurons. The source says:
Whole-cell patch clamp recordings were made at room temperature from cultured hippocampal neurons plated on coverslips secured with a platinum ring in a recording chamber (Open access chamber-1, Science Products GmbH, Hofheim, Germany) mounted on a fixed-stage upright microscope (BX51WI, Olympus, Hamburg, Germany). Differential interference contrast optics, infrared illumination and a CCD camera (PCO, Visitron Systems, Puchheim, Germany) connected to a contrast enhancement unit (Argus, Hamamatsu, Herrsching am Ammersee, Germany) were used to view neurons on a video monitor. Recordings were made with a Multiclamp 700A amplifier, digitized through a Digidata 1322A A/D converter and acquired using pClamp software (Molecular Devices, CA, USA). All membrane potentials have been corrected for the calculated junction potential of −11 mV (JPCalc program by Dr. Peter H. Barry). mEPSCs and whole-cell AMPA (10 μM, 6 ml/min, Biotrend) responses were recorded as known in the art except for the solutions and that a holding potential of −71 mV was used and both TTX (1 μM, Biotrend, Cologne, Germany) and gabazine (5 μM, Biotrend) were included in the ACSF. TTX was applied before gabazine to prevent the induction of action potential bursting. Access (range: 7-18 MU) and membrane resistance (see Table 1) were monitored before and after mEPSC recordings and data was rejected if changes greater than 20% occurred.
Patch electrodes (3-4 MU) were made from borosilicate glass (1.5 mm, WPI, Sarasota, Fla., USA) and filled with intracellular solution (containing in mM: KCH3SO4, 145; NaCl, 8; HEPES, 10; K2-phosphocreatine, 10; Mgt-ATP, 4; Na3-GTP, 0.3; pH 7.35 with KOH). The extracellular solution was an artificial cerebrospinal fluid (ACSF, in mM: NaCl, 125; KCl, 3.5; MgCl2, 1.3; NaH2PO4, 1.2; CaCl2, 2.4; glucose, 25; NaHCO3, 26; gassed with 95% O2 and 5% CO2).
Background: The patch-clamp technique gives a direct electrical read-out from membranes.

Where two headings read alike, the source gives them in different places.

In the case of “shVEGFC: shRNA specific for VEGFC (GTTCATTCCATTATTAGAC; SEQ ID NO: 6) [reference compound]”, the “mRNA levels of respective targets” value in data set [1] was “reduced mRNA levels of their respective targets”. Moreover, in data set [2], the “total dendritic length and dendritic complexity (Sholl analysis)” value is on record as “had no effect on dendrite length or complexity”.
Consider `C[C@]12N[C@H](Cc3ccccc31)c1ccccc12` [MK801, reference compound], for which the “VEGFD expression (qRT-PCR)” value in data set [3] was “significantly reduced the expression of VEGFD mRNA”.
Consider “shSCR: scramble version of the shVEGFD sequence (GTGCCAAGACGGGTAGTCA; SEQ ID NO: 2), control [reference compound]”, for which, in data set [4] (infected neurons), the “AP induc thresh (current injection required to induce an action potential)” value stood at 116 ± 10 pA, the “AP thresh (membrane potential at which action potentials initiate)” value is on record as −48.4 ± 1.0 mV, the “Cm (membrane capacitance)” value stood at 102.4 ± 4.4 pF and the “Rm (membrane resistance)” value was 275 ± 15 MΩ. In data set [4] (infected neurons), the “Vrest (resting membrane potential)” value is given as −78.7 ± 1.7 mV, the “mEPSC τ decay” value is 5.70 ± 0.12 ms and the “mEPSC τ rise” value stood at 3.36 ± 0.07 ms. For the same molecule, in data set [4] (transfected neurons), the “AP induc thresh (current injection required to induce an action potential)” value is 125 ± 13 pA, the “AP thresh (membrane potential at which action potentials initiate)” value is −44.1 ± 1.6 mV, the “Cm (membrane capacitance)” value was determined as 88.6 ± 5.5 pF and the “Rm (membrane resistance)” value stood at 291 ± 32 MΩ. In addition, in data set [4] (transfected neurons), the “Vrest (resting membrane potential)” value is recorded as −76.5 ± 2.3 mV, the “mEPSC τ decay” value is reported as 6.06 ± 0.07 ms and the “mEPSC τ rise” value is 3.18 ± 0.14 ms. The “spine density (number of spines/20 μm)” value in data set [2] (transfected hippocampal neurons) came to 6.17±0.56 spines/20 μm.
For the molecule “shVEGFR3: shRNA specific for VEGFR3 (CCCAGTATTGTGTGGTACAAA; SEQ ID NO: 7)”, the “mRNA levels of respective targets” value in data set [1] was “reduced mRNA levels of their respective targets”. Besides, the “total dendritic length and dendritic complexity (Sholl analysis)” value in data set [2] is “changes in the dendritic structure that were virtually identical to those obtained in hippocampal neurons transfected with pAAV-shVEGFD”.
Regarding “shp38α: shRNA specific for the alpha isoform of p38 MAPK (AAACACGAAAATGTGATTGGT; SEQ ID NO: 3) [reference compound]”, the “effect on rVEGFD-induced rescue of dendrite length and complexity” value in data set [2] (neurons expressing CaMBP4 (and CaMKIVK75E), rVEGFD 3 days) is reported as “prevented the rVEGFD-induced rescue”.
With `C[S+]([O-])c1ccc(-c2nc(-c3ccncc3)c(-c3ccc(F)cc3)[nH]2)cc1` (stereo not drawn) [SB203580, reference compound], in data set [2], the “Sholl analysis, SB203580 alone” value is recorded as “showed no difference compared to the respective untreated controls”; the “effect on rVEGFD-induced rescue of dendrite length and complexity” value was “severely compromised the ability of rVEGFD to rescue the impairment of dendrite length and complexity”.
On to “shVEGF: shRNA specific for VEGF (ACCTCACCAAAGCCAGCAC; SEQ ID NO: 5) [reference compound]”, for which the “mRNA levels of respective targets” value in data set [1] is listed as “reduced mRNA levels of their respective targets”. Further, the “total dendritic length and dendritic complexity (Sholl analysis)” value in data set [2] was “had no effect on dendrite length or complexity”.

B1: rVEGFC: recombinant mouse VEGFC (Biocat) (protein, UniProt P97953 108-223, looked up)
Vascular endothelial growth …: AHYNTEILKSIDNEWRKTQCMPREVCIDVGKEFGAATNTFFKPPCVSVYRCGGCCNSEGLQCMNTSTGYLSKTLFEITVPLSQGPKPVTISFANHTSCRCMSKLDVYRQVHSIIRR
Consider B1, for which the “rescue of reduction in dendrite length and complexity caused by CaMBP4 or CaMKIVK75E” value in data set [2] is “neither recombinant VEGF (rVEGF) nor recombinant VEGFC (rVEGFC) was able to rescue”.

B2: VEGFD-HA: HA-tagged VEGFD expressed from rAAV plasmid or rAAV (protein, UniProt P97946 94-210, looked up)
Vascular endothelial growth …: FAATFYDTETLKVIDEEWQRTQCSPRETCVEVASELGKTTNTFFKPPCVNVFRCGGCCNEEGVMCMNTSTSYISKQLFEISVPLTSVPELVPVKIANHTGCKCLPTGPRHPYSIIRR
modifications: HA tag
Regarding B2, the neuronal morphology entry in data set [2] (neurons without nuclear calcium signaling blockade) is reported as “no detectable effect on neuronal morphology”. Besides, the “restoration of spine density in CaMBP4 or CaMKIVK75E expressing neurons” value in data set [2] (rVEGFD 100 ng/ml 3 days or VEGFD-HA expression) is recorded as “failed to restore normal spine density”. For the same molecule, the “rescue of reduction in dendrite length and complexity caused by CaMBP4 or CaMKIVK75E” value in data set [2] is “rescued the reduction in dendrite length and complexity”.

B3: resiVEGFD-HA: HA-tagged VEGFD resistant to shVEGFD, expressed from plasmid (protein, UniProt P97946 94-210, looked up)
Vascular endothelial growth …: FAATFYDTETLKVIDEEWQRTQCSPRETCVEVASELGKTTNTFFKPPCVNVFRCGGCCNEEGVMCMNTSTSYISKQLFEISVPLTSVPELVPVKIANHTGCKCLPTGPRHPYSIIRR
modifications: HA tag; shRNA-resistant coding sequence
notes: HA-tagged VEGFD resistant to shVEGFD, expressed from plasmid
Consider B3, for which, in data set [2] (pAAV-shVEGFD transfected neurons, rVEGFD 100 ng/ml 3 days or co-transfection), the “effect on reduction of dendrite length and complexity caused by shVEGFD” value was “rescued the reduction of dendrite length and complexity”.
